Usually inhibition stands for the percentage by which the read-out fell short of the control. In general, GI50 refers to the concentration giving 50% growth inhibition. Higher therefore signals lower sensitivity of the cells.

The values below come from ChEMBL document CHEMBL4152229, “Synthesis and biological evaluation of 2,6-disubstituted-9H-purine, 2,4-disubstitued-thieno[3,2-d]pyrimidine and -7H-pyrrolo[2,3-d]pyrimidine analogues as novel CHK1 inhibitors” (Eur J Med Chem, 2018).

Experiment [1] deals with HT-29. Put plainly: Cell cycle arrest in human HT-29 cells assessed as accumulation at S phase at 10 uM after 48 hrs by propidium iodide/RNase staining-based flow cytometric analysis (reference value: 30.9%). The format is functional.
Experiment [2] concerns the target Mitogen-activated protein kinase 1 (Homo sapiens) (UniProt P28482). Put plainly: Inhibition of DNA-tagged MAPK1 (unknown origin) expressed in HEK293 cells at 10 uM after 1 hr by real-time fluorescent quantitative PCR analysis. The format is cell-based.
The subject of experiment [3] is HT-29. The experiment in a line: cells. To be noted: Homo sapiens, HT-29, 72 h.
Description: Antiproliferative activity against human HT-29 cells after 72 hrs by MTS assay
The target in experiment [4] is RAC-alpha serine/threonine-protein kinase (Homo sapiens) (UniProt P31749). Put plainly: Inhibition of DNA-tagged AKT1 (unknown origin) expressed in HEK293 cells at 10 uM after 1 hr by real-time fluorescent quantitative PCR analysis. Format: cell-based.
Chain of RAC-alpha serine/threonine-protein kinase (Homo sapiens) (P31749 whole entry): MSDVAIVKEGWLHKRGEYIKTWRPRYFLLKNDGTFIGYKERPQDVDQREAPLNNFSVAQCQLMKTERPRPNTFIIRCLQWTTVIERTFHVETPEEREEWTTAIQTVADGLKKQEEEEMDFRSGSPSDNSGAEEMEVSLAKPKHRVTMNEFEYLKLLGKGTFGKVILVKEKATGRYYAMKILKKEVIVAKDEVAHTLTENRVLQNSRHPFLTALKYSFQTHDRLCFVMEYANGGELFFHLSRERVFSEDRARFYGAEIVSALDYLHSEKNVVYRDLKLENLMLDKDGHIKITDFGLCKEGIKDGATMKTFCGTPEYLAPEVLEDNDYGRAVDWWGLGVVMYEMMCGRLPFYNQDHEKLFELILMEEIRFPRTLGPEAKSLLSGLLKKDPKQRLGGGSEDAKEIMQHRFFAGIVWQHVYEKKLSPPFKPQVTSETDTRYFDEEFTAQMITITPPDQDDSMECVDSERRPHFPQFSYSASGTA
The target in experiment [5] is ALK tyrosine kinase receptor (Homo sapiens) (UniProt Q9UM73). The experiment in a line: Inhibition of DNA-tagged ALK (unknown origin) expressed in HEK293 cells at 10 uM after 1 hr by real-time fluorescent quantitative PCR analysis. Format: cell-based.
Chain of ALK tyrosine kinase receptor (Homo sapiens) (Q9UM73 19-1620 limits assumed): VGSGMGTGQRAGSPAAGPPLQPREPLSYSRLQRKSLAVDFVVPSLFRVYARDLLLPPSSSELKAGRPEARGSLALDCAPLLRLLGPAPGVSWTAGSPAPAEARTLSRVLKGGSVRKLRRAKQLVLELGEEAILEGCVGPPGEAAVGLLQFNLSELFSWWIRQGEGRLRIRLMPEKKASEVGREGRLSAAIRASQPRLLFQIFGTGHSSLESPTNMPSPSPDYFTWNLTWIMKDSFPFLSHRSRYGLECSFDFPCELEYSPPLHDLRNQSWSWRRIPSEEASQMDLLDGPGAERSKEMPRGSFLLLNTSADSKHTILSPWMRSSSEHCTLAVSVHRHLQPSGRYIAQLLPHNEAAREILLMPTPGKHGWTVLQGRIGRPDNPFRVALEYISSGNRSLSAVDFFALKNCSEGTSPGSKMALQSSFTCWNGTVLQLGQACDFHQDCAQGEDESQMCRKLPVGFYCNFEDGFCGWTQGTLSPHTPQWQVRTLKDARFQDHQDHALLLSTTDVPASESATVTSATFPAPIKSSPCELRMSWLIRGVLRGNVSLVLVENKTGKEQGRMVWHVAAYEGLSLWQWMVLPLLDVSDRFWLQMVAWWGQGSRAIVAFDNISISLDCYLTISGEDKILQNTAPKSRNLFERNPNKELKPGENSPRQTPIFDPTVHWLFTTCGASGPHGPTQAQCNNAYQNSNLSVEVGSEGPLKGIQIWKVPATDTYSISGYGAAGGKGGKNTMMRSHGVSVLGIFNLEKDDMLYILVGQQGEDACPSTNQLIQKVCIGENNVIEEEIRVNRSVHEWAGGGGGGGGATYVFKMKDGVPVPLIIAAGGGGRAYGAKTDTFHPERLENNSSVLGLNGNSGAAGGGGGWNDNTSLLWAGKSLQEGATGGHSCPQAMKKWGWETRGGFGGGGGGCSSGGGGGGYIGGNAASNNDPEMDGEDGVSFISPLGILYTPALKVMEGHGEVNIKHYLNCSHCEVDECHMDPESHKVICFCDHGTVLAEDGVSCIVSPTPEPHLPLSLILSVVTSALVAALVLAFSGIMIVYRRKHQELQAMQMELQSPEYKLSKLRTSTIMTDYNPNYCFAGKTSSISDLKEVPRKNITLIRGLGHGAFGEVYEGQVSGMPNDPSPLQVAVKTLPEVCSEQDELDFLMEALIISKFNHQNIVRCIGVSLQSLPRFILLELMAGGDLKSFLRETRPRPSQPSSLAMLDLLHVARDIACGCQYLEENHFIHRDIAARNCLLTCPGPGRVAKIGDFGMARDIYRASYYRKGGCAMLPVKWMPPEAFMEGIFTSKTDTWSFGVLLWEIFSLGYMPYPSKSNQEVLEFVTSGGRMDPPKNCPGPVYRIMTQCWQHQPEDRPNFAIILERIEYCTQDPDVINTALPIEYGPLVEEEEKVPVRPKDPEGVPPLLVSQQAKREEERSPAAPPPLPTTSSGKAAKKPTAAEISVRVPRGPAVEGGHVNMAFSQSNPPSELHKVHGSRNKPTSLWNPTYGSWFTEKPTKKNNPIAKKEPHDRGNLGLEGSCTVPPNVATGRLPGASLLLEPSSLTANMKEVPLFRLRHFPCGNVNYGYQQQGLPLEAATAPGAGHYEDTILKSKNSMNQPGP
Experiment [6] has as its system HT-29. Put plainly: Inhibition of colony formation in human HT-29 cells at <10 uM after 2 weeks by crystal violet staining-based assay. Format: functional, cell-based.
In experiment [7] the test system is HT-29. Put plainly: Cell cycle arrest in human HT-29 cells assessed as accumulation at G2 phase at 10 uM after 48 hrs by propidium iodide/RNase staining-based flow cytometric analysis (reference value: 7.0%). Format: functional. A general note: A flow cytometer gives signals particle by particle.
The target in experiment [8] is T1, Calcium/calmodulin-dependent protein kinase type IV (Homo sapiens) (UniProt Q16566).
T1 sequence (whole entry): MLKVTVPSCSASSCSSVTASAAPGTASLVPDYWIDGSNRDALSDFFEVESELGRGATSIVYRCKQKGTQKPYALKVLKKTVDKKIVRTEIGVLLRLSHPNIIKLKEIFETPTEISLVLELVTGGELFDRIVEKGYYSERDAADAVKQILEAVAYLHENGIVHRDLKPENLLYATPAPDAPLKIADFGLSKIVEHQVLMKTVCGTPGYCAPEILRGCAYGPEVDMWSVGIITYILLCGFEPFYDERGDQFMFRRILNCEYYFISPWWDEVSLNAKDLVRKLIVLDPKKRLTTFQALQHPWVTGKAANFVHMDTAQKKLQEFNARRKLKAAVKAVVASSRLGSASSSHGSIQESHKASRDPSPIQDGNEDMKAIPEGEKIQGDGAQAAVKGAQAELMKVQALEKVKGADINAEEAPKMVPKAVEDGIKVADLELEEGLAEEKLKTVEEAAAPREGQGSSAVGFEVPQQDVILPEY
The experiment in a line: Inhibition of DNA-tagged CAMK4 (unknown origin) expressed in HEK293 cells at 10 uM after 1 hr by real-time fluorescent quantitative PCR analysis. Format: cell-based.

Experiment [9] deals with T2, Serine/threonine-protein kinase Chk1 (Homo sapiens) (UniProt O14757).
T2 sequence (whole entry): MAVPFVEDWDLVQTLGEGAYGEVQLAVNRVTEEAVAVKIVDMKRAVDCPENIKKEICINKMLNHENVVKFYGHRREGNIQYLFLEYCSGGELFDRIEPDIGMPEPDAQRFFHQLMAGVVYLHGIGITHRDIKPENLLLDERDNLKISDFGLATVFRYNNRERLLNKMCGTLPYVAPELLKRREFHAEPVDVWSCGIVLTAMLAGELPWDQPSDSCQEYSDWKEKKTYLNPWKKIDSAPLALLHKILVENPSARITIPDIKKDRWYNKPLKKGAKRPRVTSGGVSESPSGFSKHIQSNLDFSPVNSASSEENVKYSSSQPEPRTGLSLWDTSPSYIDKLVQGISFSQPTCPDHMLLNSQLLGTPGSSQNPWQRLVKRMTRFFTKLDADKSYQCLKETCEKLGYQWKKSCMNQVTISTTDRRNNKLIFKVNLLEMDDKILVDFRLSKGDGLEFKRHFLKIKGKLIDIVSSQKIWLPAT
Put plainly: Inhibition of CHK1 (unknown origin) at 10 uM using Cdc25 peptide as substrate preincubated for 30 mins followed by substrate addition and measured after 60 mins by ADP-Glo kinase assay.

Experiment [10] deals with Serine/threonine-protein kinase Chk2 (Homo sapiens) (UniProt O96017). Put plainly: Inhibition of DNA-tagged CHK2 (unknown origin) expressed in HEK293 cells at 10 uM after 1 hr by real-time fluorescent quantitative PCR analysis. Format: cell-based.
Chain of Serine/threonine-protein kinase Chk2 (Homo sapiens) (O96017 whole entry): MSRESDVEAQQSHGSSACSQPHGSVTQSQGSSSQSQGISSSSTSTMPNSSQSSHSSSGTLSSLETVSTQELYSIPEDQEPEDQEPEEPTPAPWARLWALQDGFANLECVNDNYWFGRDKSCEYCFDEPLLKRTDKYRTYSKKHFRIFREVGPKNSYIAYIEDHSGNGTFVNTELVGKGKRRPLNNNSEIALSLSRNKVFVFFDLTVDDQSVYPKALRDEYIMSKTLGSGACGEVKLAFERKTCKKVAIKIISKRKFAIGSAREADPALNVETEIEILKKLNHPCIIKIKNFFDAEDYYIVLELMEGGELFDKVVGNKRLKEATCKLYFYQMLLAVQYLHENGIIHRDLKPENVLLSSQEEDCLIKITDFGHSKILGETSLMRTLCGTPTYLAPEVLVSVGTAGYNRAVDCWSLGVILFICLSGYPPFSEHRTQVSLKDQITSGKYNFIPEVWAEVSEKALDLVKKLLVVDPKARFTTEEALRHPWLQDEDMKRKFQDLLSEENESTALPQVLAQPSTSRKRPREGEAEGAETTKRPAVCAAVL
For experiment [11], the system named is HT-29. The experiment in a line: Potentiation of gemcitabine-induced cell cycle arrest in human HT-29 cells assessed as accumulation at S phase at 10 uM after 48 hrs by propidium iodide/RNase staining-based flow cytometric analysis (reference value: 62.1%). The format is functional.
For experiment [12], the target named is T2, Serine/threonine-protein kinase Chk1 (Homo sapiens). The experiment in a line: Inhibition of DNA-tagged CHK1 (unknown origin) expressed in HEK293 cells at 10 uM after 1 hr by real-time fluorescent quantitative PCR analysis. The format is cell-based.
Experiment [13] deals with cAMP-dependent protein kinase catalytic subunit alpha (Homo sapiens) (UniProt P17612). The experiment in a line: Inhibition of DNA-tagged PKACalpha (unknown origin) expressed in HEK293 cells at 10 uM after 1 hr by real-time fluorescent quantitative PCR analysis. The format is cell-based.

Structures are written as SMILES. The source made the active and inactive calls. The rule behind the calls is not given here.

Chain of Mitogen-activated protein kinase 1 (Homo sapiens) (P28482 whole entry): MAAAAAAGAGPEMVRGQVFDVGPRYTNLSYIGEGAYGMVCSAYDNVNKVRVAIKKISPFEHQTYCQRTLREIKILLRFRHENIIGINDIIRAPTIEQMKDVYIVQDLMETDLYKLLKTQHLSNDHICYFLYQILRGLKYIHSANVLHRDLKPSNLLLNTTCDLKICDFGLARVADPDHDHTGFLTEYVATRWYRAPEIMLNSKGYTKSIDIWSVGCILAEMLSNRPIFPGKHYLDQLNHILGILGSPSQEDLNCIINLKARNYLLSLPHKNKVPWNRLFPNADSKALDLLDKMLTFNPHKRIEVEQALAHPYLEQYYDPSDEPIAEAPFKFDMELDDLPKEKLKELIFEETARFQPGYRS

Take `Fc1ccc(Nc2nc(N3CCOCC3)c3nc[nH]c3n2)cc1`: the values for the Activity in the experiment on HT-29 [1], in the experiment with HT-29 [7] and in the experiment with HT-29 [11] were 29.5%, 10.5% and 61%, respectively. Moreover, the inhibition in experiment [2] was determined as 33%; in experiment [4] it was 0%; in experiment [5] it was 1%; in [8], 0%; in experiment [9], 89.9%; in experiment [10], 72%. In addition, the inhibition was found to be 89.9% in experiment [12] and 0% in [13]. In the experiment with HT-29 [3], the GI50 was above 100 µM. Also, in the experiment on HT-29 [6], the inhibition entry is “inactive”.
